In patent US6777418B2, “Retinoid compounds (I)” (Syntex (U.S.A.) LLC, priority 2000, dated 2004) one finds IC50 and melting point data, which are given here for nine compounds.

As usually defined, the melting point is the temperature of the solid-liquid transition.

Data set [1] concerns the target T1, RAR beta (Homo sapiens, UniProt P10826).
T1 sequence (P10826 1-455): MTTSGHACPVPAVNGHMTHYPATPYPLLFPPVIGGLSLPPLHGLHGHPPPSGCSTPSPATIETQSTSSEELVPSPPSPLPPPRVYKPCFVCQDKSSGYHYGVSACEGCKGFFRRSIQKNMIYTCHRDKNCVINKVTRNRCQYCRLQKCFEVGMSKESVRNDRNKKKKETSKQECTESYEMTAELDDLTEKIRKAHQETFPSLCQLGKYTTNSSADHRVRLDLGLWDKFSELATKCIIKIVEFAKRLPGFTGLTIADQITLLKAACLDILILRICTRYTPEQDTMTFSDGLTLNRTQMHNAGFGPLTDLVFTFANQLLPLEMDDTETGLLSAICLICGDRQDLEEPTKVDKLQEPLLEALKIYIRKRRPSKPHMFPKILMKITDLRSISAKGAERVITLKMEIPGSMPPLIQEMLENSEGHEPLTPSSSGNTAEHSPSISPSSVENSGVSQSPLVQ
Kind of data set: Ligand binding assay, retinoid receptors (Apfel et al.), RAR beta. The settings on record: second value of the cell, read-out: IC50 nM (alpha/beta/gamma): beta. An excerpt: (§1) The retinoic acid receptor agonist selectivity of a compound of the invention may be determined by using ligand binding assays known to the skilled artisan (Apfel et al., Proc. Natl. Acad. Sci., (1992), 89, 7129; Teng et al., J. Med. Chem., (1997), 40, 2445; Bryce et al., U.S. Pat. No. 5,807,900 which are herein incorporated by reference). Treatment with RAR agonists, particularly RAR γ agonists may promote repair of alveolar matrix and septation, which are in important in treating emphysema. Preferably, compounds of the invention are γ selective agonists that bind to the γ receptor with affinities between about 25 nm and about 1000 nm and show a five to ten fold selectivity over binding to the RAR α receptor. It should be noted that RAR agonists that are not γ selective may be effective in treating emphysema. Transactivation, which is the ability of a retinoid to activate gene transcription when gene transcription is initiated by the binding of a ligand to the particular retinoic acid receptor being tested, may be determined by using methods described in the art (Apfel et al., Proc. Natl. Acad. Sci., (1992), 89, 7129; Bernard et al., Biochem. And Biophys. Res. Comm., (1992), 186, 977 which is herein incorporated by reference.
(§2) The RAR α antagonist selectivity of compounds of the invention was determined by the ligand binding assays described in C. Apfel et al. Proc. Nat. Sci. Acad. (USA), 89:7129-7133 (1992).

In data set [2] the target is T2, RAR α (Homo sapiens, UniProt P10276).
T2 sequence (P10276 1-462): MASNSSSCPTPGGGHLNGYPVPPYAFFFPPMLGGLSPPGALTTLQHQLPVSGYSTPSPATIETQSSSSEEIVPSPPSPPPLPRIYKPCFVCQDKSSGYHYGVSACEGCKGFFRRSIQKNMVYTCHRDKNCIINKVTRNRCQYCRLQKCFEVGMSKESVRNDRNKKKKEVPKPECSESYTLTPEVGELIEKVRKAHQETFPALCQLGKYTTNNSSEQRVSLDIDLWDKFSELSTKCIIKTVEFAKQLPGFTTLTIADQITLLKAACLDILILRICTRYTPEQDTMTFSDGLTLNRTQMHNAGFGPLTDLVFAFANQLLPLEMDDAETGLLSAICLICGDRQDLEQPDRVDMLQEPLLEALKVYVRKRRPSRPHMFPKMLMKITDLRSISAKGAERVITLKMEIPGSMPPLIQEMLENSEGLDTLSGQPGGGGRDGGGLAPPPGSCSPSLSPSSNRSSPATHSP
The data set can be described thus: Ligand binding assay, retinoid receptors (Apfel et al.), RAR alpha. The settings on record: first value of the cell, read-out: IC50 nM (alpha/beta/gamma): alpha.
Source text: as §1, §2

The target in data set [3] is T3, RAR gamma (Homo sapiens, UniProt P13631).
T3 sequence (P13631 1-454): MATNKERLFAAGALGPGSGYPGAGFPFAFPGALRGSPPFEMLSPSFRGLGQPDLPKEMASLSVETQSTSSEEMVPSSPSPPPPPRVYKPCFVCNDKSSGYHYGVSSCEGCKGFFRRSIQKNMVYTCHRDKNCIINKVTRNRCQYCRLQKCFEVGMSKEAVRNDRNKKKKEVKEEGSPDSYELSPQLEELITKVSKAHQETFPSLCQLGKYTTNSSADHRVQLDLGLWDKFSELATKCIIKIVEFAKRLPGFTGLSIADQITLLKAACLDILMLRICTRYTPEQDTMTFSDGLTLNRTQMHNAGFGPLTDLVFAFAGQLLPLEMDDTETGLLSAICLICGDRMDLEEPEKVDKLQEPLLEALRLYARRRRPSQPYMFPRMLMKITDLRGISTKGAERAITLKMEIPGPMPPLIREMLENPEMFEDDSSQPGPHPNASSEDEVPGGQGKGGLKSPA
Kind of data set: Ligand binding assay, retinoid receptors (Apfel et al.), RAR gamma. Particulars: third value of the cell, read-out: IC50 nM (alpha/beta/gamma): gamma.
Source text: as §1, §2

In turn, `COCCCc1cc2c(cc1/C=C/c1ccc(C(=O)O)cc1)C(C)(C)CCC2(C)C` [Compound 11, 4-{(E)-2-[3-(3-methoxypropyl}-5,8,8-tetramethyl-5,6,7,8-tetrahydro-naphthalen-2-yl]vinyl}benzoic acid] yielded a melting point of 164.7 to 166 °C. Moreover, the IC50 in data set [1] was 1400 nM. Besides, the IC50 in data set [2] amounted to 1800 nM. Further, in data set [3], the IC50 turned out to be 210 nM.
The corresponding values for `CC1(C)CCC(C)(C)c2cc(Cn3cccc3)c(/C=C/c3ccc(C(=O)O)cc3)cc21` [Compound 7, 4-[(E)-2-(5,5,8,8-tetramethyl-3-pyrrol-1-ylmethyl-5,6,7,8-tetrahydro-naphthalen-2-yl)vinyl]benzoic acid] are 255.6 to 257.4 °C, 140 nM, 260 nM and 17 nM.
As for `COCc1cc2c(cc1/C=C/c1ccc(C(=O)O)cc1)C(C)(C)CCC2(C)C` [Compound 1], the melting point is 184.2 to 187.9 °C. The IC50 in data set [1] was 1600 nM. Moreover, in data set [2], the IC50 amounted to 3600 nM. For the same compound, the IC50 in data set [3] was 1700 nM.
As for `CC1(C)CCC(C)(C)c2cc(CSCc3ccco3)c(/C=C/c3ccc(C(=O)O)cc3)cc21` [Compound 8], the melting point is 169.7 to 171 °C. Besides, the IC50 in data set [1] is 450 nM. The IC50 in data set [2] came out at 810 nM. The IC50 in data set [3] worked out at 26 nM.
For `CCC(C)CSCc1cc2c(cc1/C=C/c1ccc(C(=O)O)cc1)C(C)(C)CCC2(C)C` (centres unmarked) [Compound 3] the same measures were 66.1 to 68.5 °C, 100 nM, 200 nM and 260 nM.
For `Cn1nnnc1SCc1cc2c(cc1/C=C/c1ccc(C(=O)O)cc1)C(C)(C)CCC2(C)C` [Compound 25], the IC50 in data set [1] was determined as 100 nM; in data set [2], 190 nM; in data set [3] it was 230 nM.
Take `CC1(C)CCC(C)(C)c2cc(CO)c(/C=C/c3ccc(C(=O)O)cc3)cc21` [Compound 15]: the values for the IC50 in data set [1], in data set [2] and in data set [3] were 1000 nM, 1000 nM and 1800 nM, respectively.
In the case of `CCCCSCc1cc2c(cc1/C=C/c1ccc(C(=O)O)cc1)C(C)(C)CCC2(C)C` [Compound 2, 4-[(E)-2-(3-Butylthiomethyl-5,5,8,8-tetramethyl-5,6,7,8-tetrahydro-naphthalen-2-yl)vinyl]benzoic acid], the IC50 turned out to be 320 nM in data set [1], 1000 nM in data set [2] and 190 nM in data set [3].
The corresponding values for `Cc1cnn(Cc2cc3c(cc2/C=C/c2ccc(C(=O)O)cc2)C(C)(C)CCC3(C)C)c1` [Compound 20] are 620 nM, 950 nM and 670 nM.
